Measurements: patent US20240158370A1, “CK1 alpha AND DUAL CK1 alpha / GSPT1 DEGRADING COMPOUNDS” (Innovo Therapeutics, Inc., priority 2022, published 2024)

Key:
CK1α = target: T1, CK1α (Homo sapiens, UniProt P48729+Q96SW2); test: HiBiT degradation assay, CK1α, Procedure A; format: cell-based; settings: six hours
T1 construct: CSNK1A1-HiBit KI HEK293(LgBit) Cells; host or cells: HEK293(LgBit) knock-in cells
Method in brief: (§1)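 Cells in DMEM+10% FBS at 1×10^6 cells/ml were added to pre-spotted compound (10-point dose response, 10 μM to 0.005 μM, 0.1% DMSO) and incubated 6 h at 37° C. Nano-Glo HiBiT lytic reagent was added and luminescence read. DC50 and Ymin came from 4-parameter curve fits.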

GSPT1 = GSPT1 (Homo sapiens, UniProt P15170+Q96SW2); test: HiBiT degradation assay, GSPT1, Procedure A; format: cell-based; set-up: HiBit-GSPT1 KI HEK293(LgBit) Cells; host or cells: HEK293(LgBit) knock-in cells; settings: six hours
Method in brief: as §1

GSPT1, sequence (P15170 whole entry): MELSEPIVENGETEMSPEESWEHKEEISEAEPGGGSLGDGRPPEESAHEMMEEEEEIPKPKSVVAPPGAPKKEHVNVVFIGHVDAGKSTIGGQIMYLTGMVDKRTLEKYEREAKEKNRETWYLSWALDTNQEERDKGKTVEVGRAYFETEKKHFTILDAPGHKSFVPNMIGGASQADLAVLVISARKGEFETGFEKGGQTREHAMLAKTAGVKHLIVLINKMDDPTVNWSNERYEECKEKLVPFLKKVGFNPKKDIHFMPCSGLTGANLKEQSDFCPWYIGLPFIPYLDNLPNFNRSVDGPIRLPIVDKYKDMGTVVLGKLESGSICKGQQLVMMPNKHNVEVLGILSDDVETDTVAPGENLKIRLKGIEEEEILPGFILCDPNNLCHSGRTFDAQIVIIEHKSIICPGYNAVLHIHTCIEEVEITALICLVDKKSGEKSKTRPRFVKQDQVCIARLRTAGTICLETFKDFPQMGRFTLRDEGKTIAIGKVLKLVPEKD
GSPT1, sequence (Q96SW2 whole entry): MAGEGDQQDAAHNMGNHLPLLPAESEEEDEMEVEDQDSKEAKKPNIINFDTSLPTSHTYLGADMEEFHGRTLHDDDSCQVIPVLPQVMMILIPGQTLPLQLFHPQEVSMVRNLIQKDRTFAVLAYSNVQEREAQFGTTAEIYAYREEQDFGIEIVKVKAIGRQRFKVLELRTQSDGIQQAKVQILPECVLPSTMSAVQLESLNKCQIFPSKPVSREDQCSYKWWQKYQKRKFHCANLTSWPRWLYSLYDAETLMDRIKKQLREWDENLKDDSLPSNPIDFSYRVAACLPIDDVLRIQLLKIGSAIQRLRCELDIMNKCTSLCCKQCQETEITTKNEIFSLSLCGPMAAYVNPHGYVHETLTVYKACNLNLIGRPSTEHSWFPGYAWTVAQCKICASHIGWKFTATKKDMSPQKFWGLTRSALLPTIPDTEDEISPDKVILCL
GSPT1, sequence (Q16531 whole entry partner): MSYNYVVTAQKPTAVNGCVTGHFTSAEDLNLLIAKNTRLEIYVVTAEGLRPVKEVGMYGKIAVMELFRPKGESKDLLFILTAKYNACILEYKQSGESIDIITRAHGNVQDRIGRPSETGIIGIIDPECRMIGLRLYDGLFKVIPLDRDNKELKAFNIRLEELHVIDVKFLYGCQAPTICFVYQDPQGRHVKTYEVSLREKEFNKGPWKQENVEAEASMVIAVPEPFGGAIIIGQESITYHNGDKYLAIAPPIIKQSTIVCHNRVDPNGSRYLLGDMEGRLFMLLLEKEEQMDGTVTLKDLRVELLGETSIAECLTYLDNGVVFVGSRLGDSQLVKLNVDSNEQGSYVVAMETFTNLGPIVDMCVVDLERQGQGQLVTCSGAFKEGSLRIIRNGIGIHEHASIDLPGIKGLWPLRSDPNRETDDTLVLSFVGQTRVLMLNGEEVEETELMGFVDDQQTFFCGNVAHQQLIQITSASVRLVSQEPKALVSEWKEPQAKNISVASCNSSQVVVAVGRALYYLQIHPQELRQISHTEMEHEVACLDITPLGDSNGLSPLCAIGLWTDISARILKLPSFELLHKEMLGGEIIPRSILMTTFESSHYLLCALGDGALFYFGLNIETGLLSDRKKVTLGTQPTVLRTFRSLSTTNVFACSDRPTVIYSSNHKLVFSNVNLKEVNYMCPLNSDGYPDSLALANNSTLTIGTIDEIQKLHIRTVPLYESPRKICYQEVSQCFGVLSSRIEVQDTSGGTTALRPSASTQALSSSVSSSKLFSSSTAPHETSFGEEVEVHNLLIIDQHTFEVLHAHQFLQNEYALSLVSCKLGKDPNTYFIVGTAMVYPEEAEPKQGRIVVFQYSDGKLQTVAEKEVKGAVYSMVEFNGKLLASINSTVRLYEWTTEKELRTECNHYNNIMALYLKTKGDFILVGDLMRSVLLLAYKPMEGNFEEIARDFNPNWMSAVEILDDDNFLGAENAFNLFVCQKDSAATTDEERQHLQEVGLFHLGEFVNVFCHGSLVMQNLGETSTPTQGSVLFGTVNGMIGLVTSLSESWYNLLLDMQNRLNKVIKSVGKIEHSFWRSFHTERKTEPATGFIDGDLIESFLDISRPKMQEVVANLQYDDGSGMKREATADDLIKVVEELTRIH
T1 sequence (P48729 whole entry): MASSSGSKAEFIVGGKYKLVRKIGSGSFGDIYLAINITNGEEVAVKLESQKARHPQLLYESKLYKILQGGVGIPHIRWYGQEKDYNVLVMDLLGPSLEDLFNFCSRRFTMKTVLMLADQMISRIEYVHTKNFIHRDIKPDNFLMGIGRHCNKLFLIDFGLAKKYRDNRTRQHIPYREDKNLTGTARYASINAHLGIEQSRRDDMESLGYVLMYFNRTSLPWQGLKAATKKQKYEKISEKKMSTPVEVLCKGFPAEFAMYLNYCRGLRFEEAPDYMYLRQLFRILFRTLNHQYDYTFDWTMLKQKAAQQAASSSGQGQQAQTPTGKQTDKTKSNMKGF
T1 sequence (Q96SW2 whole entry): as the sequence (Q96SW2 whole entry) above
T1 sequence (Q16531 whole entry partner): as the sequence (Q16531 whole entry partner) above

## O=C1CCC(N2Cc3cc(-c4cn(CC(F)(F)F)nc4-c4ccccc4)ccc3C2=O)C(=O)N1 (stereo not drawn) [Example 427, 3-(1-oxo-5-(3-phenyl-1-(2,2,2-trifluoroethyl)-1H-pyrazol-4-yl)isoindolin-2-yl)piperidine-2,6-dione]
CK1α
  CK1α Ymin: C (C = 0-10% remaining)
  DC50: < 25 nM
GSPT1
  DC50: ≥ 25 nM
  GSPT1 Ymin: F (F = >75-100% remaining)

## Cn1ncc(-c2ccc3c(c2)CN(C2CCC(=O)NC2=O)C3=O)c1-c1ccc2c(c1)OC(F)(F)O2 (stereo not drawn) [Example 428, 3-(5-(5-(2,2-difluorobenzo[d][1,3]dioxol-5-yl)-1-methyl-1H-pyrazol-4-yl)-1-oxoisoindolin-2-yl)piperidine-2,6-dione]
CK1α
  CK1α Ymin: C (C = 0-10% remaining)
  DC50: < 25 nM
GSPT1
  DC50: ≥ 25 nM
  GSPT1 Ymin: F (F = >75-100% remaining)

## CCn1ncc(-c2ccc3c(c2)CN(C2CCC(=O)NC2=O)C3=O)c1-c1ccccc1 (stereo not drawn) [Example 429, 3-(5-(1-ethyl-5-phenyl-1H-pyrazol-4-yl)-1-oxoisoindolin-2-yl)piperidine-2,6-dione]
CK1α
  CK1α Ymin: D (D = >10- 25% remaining)
  DC50: < 25 nM
GSPT1
  DC50: < 25 nM
  GSPT1 Ymin: F (F = >75-100% remaining)

## O=C1CCC(N2Cc3cc(-c4cnn(CC(F)F)c4-c4ccccc4)ccc3C2=O)C(=O)N1 (stereo not drawn) [Example 430, 3-(5-(1-(2,2-difluoroethyl)-5-phenyl-1H-pyrazol-4-yl)-1-oxoisoindolin-2-yl)piperidine-2,6-dione]
CK1α
  CK1α Ymin: D (D = >10- 25% remaining)
  DC50: < 25 nM
GSPT1
  DC50: ≥ 25 nM
  GSPT1 Ymin: F (F = >75-100% remaining)

## [2H]C([2H])([2H])n1ncc(-c2ccc3c(c2)CN(C2CCC(=O)NC2=O)C3=O)c1-c1ccc(OC)c(F)c1 (stereo not drawn) [Example 431, 3-(5-(5-(3-fluoro-4-methoxyphenyl)-1-(methyl-d3)-1H-pyrazol-4-yl)-1-oxoisoindolin-2-yl)piperidine-2,6-dione]
CK1α
  CK1α Ymin: C (C = 0-10% remaining)
  DC50: < 25 nM
GSPT1
  DC50: ≥ 25 nM
  GSPT1 Ymin: F (F = >75-100% remaining)

## [2H]C([2H])([2H])n1ncc(-c2ccc3c(c2)CN(C2CCC(=O)NC2=O)C3=O)c1-c1ccc2c(c1)CCO2 (stereo not drawn) [Example 432, 3-(5-(5-(2,3-dihydrobenzofuran-5-yl)-1-(methyl-d3)-1H-pyrazol-4-yl)-1-oxoisoindolin-2-yl)piperidine-2,6-dione]
CK1α
  CK1α Ymin: C (C = 0-10% remaining)
  DC50: < 25 nM
GSPT1
  DC50: ≥ 25 nM
  GSPT1 Ymin: F (F = >75-100% remaining)

## [2H]C([2H])([2H])n1ncc(-c2ccc3c(c2)CN(C2CCC(=O)NC2=O)C3=O)c1-c1ccc(OC)cc1 (stereo not drawn) [Example 433, 3-(5-(5-(4-methoxyphenyl)-1-(methyl-d3)-1H-pyrazol-4-yl)-1-oxoisoindolin-2-yl) piperidine-2,6-dione]
CK1α
  CK1α Ymin: C (C = 0-10% remaining)
  DC50: < 25 nM
GSPT1
  DC50: ≥ 25 nM
  GSPT1 Ymin: F (F = >75-100% remaining)

## [2H]C([2H])([2H])n1ncc(-c2ccc3c(c2)CN(C2CCC(=O)NC2=O)C3=O)c1-c1ccc(OC)cc1Cl (stereo not drawn) [Example 434, 3-(5-(5-(2-chloro-4-methoxyphenyl)-1-(methyl-d3)-1H-pyrazol-4-yl)-1-oxoisoindolin-2-yl)piperidine-2,6-dione]
CK1α
  CK1α Ymin: C (C = 0-10% remaining)
  DC50: < 25 nM
GSPT1
  DC50: ≥ 25 nM
  GSPT1 Ymin: F (F = >75-100% remaining)

## [2H]C([2H])([2H])n1ncc(-c2ccc3c(c2)CN(C2CCC(=O)NC2=O)C3=O)c1-c1ccc(OC(F)(F)F)cc1 (stereo not drawn) [Example 435, 3-(5-(1-(methyl-d3)-5-(4-(trifluoromethoxy)phenyl)-1H-pyrazol-4-yl)-1-oxoisoindolin-2-yl) piperidine-2,6-dione]
CK1α
  CK1α Ymin: E (E = >25-75% remaining)
  DC50: < 25 nM
GSPT1
  DC50: < 25 nM
  GSPT1 Ymin: F (F = >75-100% remaining)

## [2H]C([2H])([2H])n1ncc(-c2ccc3c(c2)CN(C2CCC(=O)NC2=O)C3=O)c1-c1ccc(OC(F)F)cc1 (stereo not drawn) [Example 436, 3-(5-(5-(4-(difluoromethoxy)phenyl)-1-(methyl-d3)-1H-pyrazol-4-yl)-1-oxoisoindolin-2-yl)piperidine-2,6-dione]
CK1α
  CK1α Ymin: D (D = >10- 25% remaining)
  DC50: < 25 nM
GSPT1
  DC50: ≥ 25 nM
  GSPT1 Ymin: F (F = >75-100% remaining)

## [2H]C([2H])([2H])n1cc(-c2ccc3c(c2)CN(C2CCC(=O)NC2=O)C3=O)nc1-c1ccccc1 (stereo not drawn) [Example 437, 3-(5-(1-(methyl-d3)-2-phenyl-1H-imidazol-4-yl)-1-oxoisoindolin-2-yl)piperidine-2,6-dione]
CK1α
  CK1α Ymin: C (C = 0-10% remaining)
  DC50: < 25 nM
GSPT1
  DC50: < 25 nM
  GSPT1 Ymin: F (F = >75-100% remaining)

## Cn1ncc(-c2ccc3c(c2)CN(C2CCC(=O)NC2=O)C3=O)c1-c1ccc(F)cc1C#N (stereo not drawn) [Example 438]
CK1α
  CK1α Ymin: E (E = >25-75% remaining)
  DC50: ≥ 25 nM
GSPT1
  DC50: ≥ 25 nM
  GSPT1 Ymin: F (F = >75-100% remaining)

## Cn1cnc(-c2ccc3c(c2)CN(C2CCC(=O)NC2=O)C3=O)c1-c1ccc(N)cc1 (stereo not drawn) [Example 439]
CK1α
  CK1α Ymin: C (C = 0-10% remaining)
  DC50: < 25 nM
GSPT1
  DC50: < 25 nM
  GSPT1 Ymin: E (E = >25-75% remaining)

## Cn1cnc(-c2ccc3c(c2)CN(C2CCC(=O)NC2=O)C3=O)c1-c1ccccc1N (stereo not drawn) [Example 440]
CK1α
  CK1α Ymin: C (C = 0-10% remaining)
  DC50: < 25 nM
GSPT1
  DC50: < 25 nM
  GSPT1 Ymin: E (E = >25-75% remaining)

## Cn1cnc(-c2ccc3c(c2)CN(C2CCC(=O)NC2=O)C3=O)c1-c1cccc(F)c1 (stereo not drawn) [Example 441]
CK1α
  CK1α Ymin: C (C = 0-10% remaining)
  DC50: < 25 nM
GSPT1
  DC50: < 25 nM
  GSPT1 Ymin: E (E = >25-75% remaining)

## Cc1cccc(C)c1-c1c(-c2ccc3c(c2)CN(C2CCC(=O)NC2=O)C3=O)ncn1C (stereo not drawn) [Example 442]
CK1α
  CK1α Ymin: E (E = >25-75% remaining)
  DC50: < 25 nM
GSPT1
  DC50: ≥ 25 nM
  GSPT1 Ymin: F (F = >75-100% remaining)

## Cn1cnc(-c2ccc3c(c2)CN(C2CCC(=O)NC2=O)C3=O)c1-c1ccc2c(c1)CCO2 (stereo not drawn) [Example 443]
CK1α
  CK1α Ymin: C (C = 0-10% remaining)
  DC50: < 25 nM
GSPT1
  DC50: < 25 nM
  GSPT1 Ymin: E (E = >25-75% remaining)

## Cn1cnc(-c2ccc3c(c2)CN(C2CCC(=O)NC2=O)C3=O)c1-c1ccc(-n2cccn2)cc1 (stereo not drawn) [Example 444]
CK1α
  CK1α Ymin: C (C = 0-10% remaining)
  DC50: < 25 nM
GSPT1
  DC50: < 25 nM
  GSPT1 Ymin: E (E = >25-75% remaining)

## Cn1cnc(-c2ccc3c(c2)CN(C2CCC(=O)NC2=O)C3=O)c1-c1ccc(F)cc1C(F)(F)F (stereo not drawn) [Example 445]
CK1α
  CK1α Ymin: E (E = >25-75% remaining)
  DC50: < 25 nM
GSPT1
  DC50: ≥ 25 nM
  GSPT1 Ymin: F (F = >75-100% remaining)

## COc1ccc2cc(-c3c(-c4ccc5c(c4)CN(C4CCC(=O)NC4=O)C5=O)ncn3C)ccc2c1 (stereo not drawn) [Example 446]
CK1α
  CK1α Ymin: D (D = >10- 25% remaining)
  DC50: < 25 nM
GSPT1
  DC50: < 25 nM
  GSPT1 Ymin: F (F = >75-100% remaining)

## Cn1cnc(-c2ccc3c(c2)CN(C2CCC(=O)NC2=O)C3=O)c1-c1ccc(C(=O)Nc2ccccn2)cc1 (stereo not drawn) [Example 447]
CK1α
  CK1α Ymin: D (D = >10- 25% remaining)
  DC50: ≥ 25 nM
GSPT1
  DC50: ≥ 25 nM
  GSPT1 Ymin: F (F = >75-100% remaining)
